Source: ChEMBL document CHEMBL3638971, “Fused pyrimidines” (2015)
Several values for one entry are separate records, joined by “and”; a condition that tells them apart may be missing. Identical values can stand only once.

How the values were obtained:
[1] = molecular target: RAC-beta serine/threonine-protein kinase (Homo sapiens, UniProt P31751); test: TR-FRET Assay: Akt2 inhibitory activity of compounds of the present invention was quantified employing the Akt2 TR-FRET assay as described in the following paragraphs.His-tagged human recombinant kinase full-length Akt2 expressed in insect cells and activated by PDK1 was purchased form Invitrogen (part number PV 3975). As substrate for the kinase reaction the biotinylated peptide biotin-Ahx- KKLNRTLSFAEPG (C-terminus in amide form) was used which can be purchased e.g. from the company Biosynthan GmbH (Berlinn-Buch, Germany). For the assay 50 nl of a 10Ofold concentrated solution of the test compound in DMSO was pipetted into a black low volume 384well microtiter plate (Greiner Bio- One, Frickenhausen, Germany), 2 ul of a solution of Akt2 in assay buffer [50 mM TRIS/HCI pH 7.5, 5 mM MgCI2, 1 mM dithiothreitol, 0.02% (v/v) Triton X-100 (Sigma)] were added and the mixture was incubated for 15 min at 22C to allow pre-binding of the test compounds to the enzyme before the start of the kinase reaction.
[2] = molecular target: RAC-alpha serine/threonine-protein kinase (Homo sapiens, UniProt P31749); test: TR-FRET Assay: Akt1 inhibitory activity of compounds of the present invention may be quantified0 employing the Akt1 TR-FRET assay as described in the following paragraphs. His-tagged human recombinant kinase full-length Akt1 expressed in insect cells was purchased form Invitrogen (part number PV 3599). As substrate for the kinase reaction the biotinylated peptide biotin-Ahx-KKLNRTLSFAEPG (C-terminus in am- ide form) was used which can be purchased e.g. from the company Biosynthan GmbH (Berlin-Buch, Germany).For the assay 50 nl of a IOOfold concentrated solution of the test compound in DMSO was pipetted into a black low volume 384well microtiter plate (Greiner Bio- One, Frickenhausen, Germany), 2 ul of a solution of Akt1 in assay buffer [50 mM TRIS/HCI pH 7.5, 5 mM MgCI2, 1 mM dithiothreitol, 0.02% (v/v) Triton X-100 (Sigma)] were added and the mixture was incubated for 15 min at 22C to allow pre-binding of the test compounds to the enzyme before the start of the kinase reaction.
Chain of RAC-alpha serine/threonine-protein kinase (P31749 whole entry): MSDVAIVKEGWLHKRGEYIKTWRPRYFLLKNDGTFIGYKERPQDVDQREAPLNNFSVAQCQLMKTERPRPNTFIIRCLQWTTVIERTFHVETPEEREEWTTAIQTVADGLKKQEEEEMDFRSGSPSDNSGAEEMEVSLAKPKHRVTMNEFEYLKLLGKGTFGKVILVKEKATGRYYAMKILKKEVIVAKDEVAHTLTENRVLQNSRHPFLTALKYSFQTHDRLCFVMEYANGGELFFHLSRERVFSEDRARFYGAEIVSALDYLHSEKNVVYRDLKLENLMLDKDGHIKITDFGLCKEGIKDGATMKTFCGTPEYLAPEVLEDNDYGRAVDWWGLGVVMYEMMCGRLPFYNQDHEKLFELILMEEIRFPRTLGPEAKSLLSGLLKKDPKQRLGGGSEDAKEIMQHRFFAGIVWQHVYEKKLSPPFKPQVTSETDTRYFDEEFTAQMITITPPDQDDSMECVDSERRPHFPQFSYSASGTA

Chain of RAC-beta serine/threonine-protein kinase (P31751 whole entry): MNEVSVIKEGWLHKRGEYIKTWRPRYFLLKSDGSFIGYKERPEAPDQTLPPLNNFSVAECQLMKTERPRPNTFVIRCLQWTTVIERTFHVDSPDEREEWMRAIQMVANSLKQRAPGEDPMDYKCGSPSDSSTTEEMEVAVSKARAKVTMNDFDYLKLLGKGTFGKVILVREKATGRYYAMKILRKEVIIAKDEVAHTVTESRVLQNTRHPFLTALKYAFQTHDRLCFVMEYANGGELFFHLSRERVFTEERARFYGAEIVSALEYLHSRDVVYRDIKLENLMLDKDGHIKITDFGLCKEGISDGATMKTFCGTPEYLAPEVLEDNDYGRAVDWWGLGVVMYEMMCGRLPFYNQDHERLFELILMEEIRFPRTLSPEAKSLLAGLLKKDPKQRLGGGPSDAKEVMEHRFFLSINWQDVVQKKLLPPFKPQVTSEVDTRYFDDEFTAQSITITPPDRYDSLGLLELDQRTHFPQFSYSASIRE

Row | IC50 [1] | IC50 [2] | SMILES
1 | 4 nM | 5 nM | CSc1nc2nc(-c3ccc(CN4CCC(c5n[nH]c(-c6cccc(C)n6)n5)CC4)cc3)c(-c3ccccc3)cn2n1
2 | 102 nM | 54 nM | CS(=O)(=O)c1nc2nc(-c3ccc(CN4CCC(c5n[nH]c(-c6ccccn6)n5)CC4)cc3)c(-c3ccccc3)cn2n1
3 | 12 nM | 7 nM | CSc1nc2nc(-c3ccc(CN4CCC(c5n[nH]c(-c6ccccn6)n5)CC4)cc3)c(-c3ccccc3)cn2n1
4 | 374 nM | 32 nM | Cc1nc2nc(-c3ccc(CN4CC(c5n[nH]c(-c6ccccn6)n5)C4)cc3)c(-c3ccccc3)c(NC3CCC3)n2n1
5 | 21 nM | 11 nM | CNc1c(-c2ccccc2)c(-c2ccc(CN3CC(c4n[nH]c(-c5cccc(C)n5)n4)C3)cc2)nc2nc(C)nn12
6 | 31 nM and 20 nM | 15 nM and 9 nM | Cc1nc2nc(-c3ccc(CN4CC(c5n[nH]c(-c6ccccn6)n5)C4)cc3)c(-c3ccccc3)c(NC(C)C)n2n1
7 | 8 nM | 10 nM | Cc1cccc(-c2nc(C3CN(Cc4ccc(-c5nc6nc(C)nn6c(C)c5-c5ccccc5)cc4)C3)n[nH]2)n1
8 | 17 nM | 7 nM | Cc1nc2nc(-c3ccc(CN4CC(c5n[nH]c(-c6ccccn6)n5)C4)cc3)c(-c3ccccc3)c(C)n2n1
9 | 100 nM | 5 nM | CSc1nc2nc(-c3ccc(CN4CC(c5n[nH]c(-c6ccccn6)n5)C4)cc3)c(-c3ccccc3)cn2n1
